Test results published in PubChem BioAssay (NCI).
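These data come from cells grown in 96-well plates and exposed to compound for 48 hours at five concentrations. At the TGI there is no net growth.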

Legend:
Test in all cases: DTP human tumour cell line panel, 48 h
DU-145 prostate = tested on: DU-145 prostate
HOP-92 NSCLC = tested on: HOP-92 NSCLC
SF-268 CNS = tested on: SF-268 CNS
NCI/ADR-RES ovarian = tested on: NCI/ADR-RES ovarian
SN12C renal = tested on: SN12C renal
A549 NSCLC = tested on: A549 NSCLC
HCC-2998 colon = tested on: HCC-2998 colon
UACC-62 melanoma = tested on: UACC-62 melanoma
EKVX NSCLC = tested on: EKVX NSCLC
SW-620 colon = tested on: SW-620 colon
UO-31 renal = tested on: UO-31 renal
SK-MEL-28 melanoma = tested on: SK-MEL-28 melanoma
HCT-116 colon = tested on: HCT-116 colon
786-0 renal = tested on: 786-0 renal
K-562 leukemia = tested on: K-562 leukemia
U251 CNS = tested on: U251 CNS
SF-295 CNS = tested on: SF-295 CNS
COLO 205 colon = tested on: COLO 205 colon
OVCAR-8 ovarian = tested on: OVCAR-8 ovarian
IGROV1 ovarian = tested on: IGROV1 ovarian

Row | SMILES | TGI (DU-145 prostate) [µM] | TGI (HOP-92 NSCLC) [µM] | TGI (SF-268 CNS) [µM] | TGI (NCI/ADR-RES ovarian) [µM] | TGI (SN12C renal) [µM] | TGI (A549 NSCLC) [µM] | TGI (HCC-2998 colon) [µM] | TGI (UACC-62 melanoma) [µM] | TGI (EKVX NSCLC) [µM] | TGI (SW-620 colon) [µM] | TGI (UO-31 renal) [µM] | TGI (SK-MEL-28 melanoma) [µM] | TGI (HCT-116 colon) [µM] | TGI (786-0 renal) [µM] | TGI (K-562 leukemia) [µM] | TGI (U251 CNS) [µM] | TGI (SF-295 CNS) [µM] | TGI (COLO 205 colon) [µM] | TGI (OVCAR-8 ovarian) [µM] | TGI (IGROV1 ovarian) [µM]
1 | Cc1cc(C)c(C[C@H]2COC(=O)[C@]2(O)Cc2c(C)cc(C)cc2C)c(C)c1 | 31.9 | 29.7 | 30 | 39.1 | 36.8 | 34 | 30.7 | 28.5 | 28.2 | 53.8 | 38.4 | 76.5 | 43 | 38.5 | > 100 | 38.4 | 34.1 | 40.3 | 45.2 | –
2 | CC(C)(C)OC(=O)NC(Cc1ccc(OC(C)(C)C)cc1)C(=O)N[C@H]1CCC[C@H]1C(=O)NC(Cc1ccccc1)C(=O)N1CCCC1C(N)=O (some centres not stated) | > 100 | > 100 | > 100 | > 100 | > 100 | > 100 | > 100 | > 100 | > 100 | > 100 | > 100 | > 100 | > 100 | > 100 | > 100 | > 100 | > 100 | > 100 | > 100 | > 100
3 | COC(=O)C1=C(C(=O)Nc2cccnc2Cl)N(c2ccc(OC)cc2[N+](=O)[O-])C(c2ccc(C)cc2)=CC1c1ccc(OC)cc1OC (configuration not stated) | > 90.1 | > 100 | 78.5 | 47.5 | 35 | 40.9 | 27.8 | > 100 | > 81.9 | 22.7 | > 76.2 | > 100 | 98.7 | > 87.7 | > 100 | 40.3 | > 100 | 31.9 | 31.1 | 33.7
4 | COC(=O)C1(C(=O)OC)C/C(C)=C(/C)SCCCS1 | > 100 | > 100 | > 100 | > 100 | > 100 | > 100 | > 100 | > 100 | > 100 | > 100 | > 100 | > 100 | > 100 | > 100 | > 100 | > 100 | > 100 | > 100 | > 100 | > 100
5 | COC(=O)[C@]12CCC(C)(C)C[C@H]1[C@H]1C(=O)C=C3[C@@]4(C)C=C(C#N)C(=O)C(C)(C)[C@@H]4CC[C@@]3(C)[C@]1(C)CC2 | 0.295 | 4.03 | – | 0.0337 | 0.187 | 1.29 | 0.0305 | 0.0945 | 0.208 | 0.946 | 1.15 | – | 0.0441 | 0.415 | > 27.9 | 0.0744 | 0.105 | 0.122 | 0.0414 | 1.15
6 | CC(C)CC(NC(=O)C(CI)Cc1ccccc1)C(=O)Nc1ccccc1 (configuration not stated) | > 100 | > 100 | – | > 100 | > 100 | > 100 | > 100 | > 100 | > 100 | > 100 | > 100 | > 100 | > 100 | > 100 | > 100 | > 100 | > 100 | > 100 | > 100 | > 100
7 | COc1ccc2[nH]c3c(c2c1)CC(=S)N1CCCC(CC3=O)C1 (configuration not stated) | > 100 | > 100 | > 100 | > 100 | > 100 | > 100 | > 100 | > 100 | > 100 | > 100 | > 100 | > 100 | > 100 | > 100 | – | > 100 | > 100 | > 100 | > 100 | > 100
8 | CN(C)c1ccc(/C=N\NC(=O)Nc2cccc3ccccc23)cc1 | 30.9 | 59.5 | 71.8 | 78.8 | 31.4 | > 100 | > 100 | – | > 100 | > 100 | 51.6 | > 100 | 65.2 | 51.5 | – | 39.5 | – | > 100 | > 100 | 36.6
9 | CC(O)CCCCC(O)CCC[C@H](O)[C@H]1CCC([C@H]2CCC([C@@H](O)CCCCCCCCCCCCC3=C[C@H](C)OC3=O)O2)O1 (some centres not stated) | 23.2 | 21.6 | 22.4 | 15.4 | 22.9 | 17.6 | 23.9 | 21 | 17.4 | 23.4 | 19 | 23.9 | 15.5 | 25.9 | – | 20.6 | 18.7 | 23.7 | 21.7 | 21.1
10 | CCCCCCOc1ccc(Nc2c(O)c3c(c(O)c2Cl)C(=O)C=CC3=O)cc1 | > 10 | 7.14 | > 10 | 6.54 | 4.54 | > 10 | 3.86 | 7.99 | > 10 | 4.73 | > 5.81 | 3.82 | > 6.12 | > 7.32 | 8.92 | > 6.07 | > 10 | 4.15 | > 5.31 | –
11 | CCOC(=O)c1c(NC(=O)OC)c(C#N)c2n1CCCCC2 | 43.9 | > 100 | > 100 | > 100 | – | – | > 100 | > 100 | > 100 | > 100 | > 100 | > 100 | > 100 | > 100 | > 100 | > 100 | > 100 | > 100 | > 100 | > 100
12 | C=C(C(=O)O)[C@@H]1C[C@@H](OC(C)=O)[C@]2(C)CC/C=C(\C)CCC[C@H](C)[C@H](O)[C@@H]1O2 | > 100 | > 100 | > 100 | > 100 | > 100 | > 100 | > 100 | > 100 | > 100 | > 100 | – | > 100 | > 100 | > 100 | > 100 | > 100 | > 100 | > 100 | > 100 | > 100
